Results: US20030229105A1, “Treatment of autoimmune disorders” (Cyclacel Limited, priority 2002, published 2003)

Tests used:
[1] = test system: HTLV-1; test: p19 gag ELISA of TNF-α-treated HTLV-1-infected MT-2 cells; assay type: cell-based; conditions: TNF-α 2 h, then drug, 7 days
[2] = test system: caspase-3; test: Caspase-3 colorimetric protease assay (DEVD-pNA) on cell lysates; assay type: cell-based; conditions: induced ACH2 cells, 37° C., 3 h
Source text: Apoptosis and necrosis are two pathways that lead to cell death. Apoptosis is characterized by a series of morphological features, including cell shrinkage, plasma membrane blebbing, phosphatidylserine translocation to the outer leaflet of the plasma membrane, nuclear condensation, and DNA fragmentation (1). To distinguish apoptotic from necrotic cells, we performed a flow cytometry experiment using Annexin V and PI double staining. Annexin V is a sensitive probe for phosphatidylserine, and PI was used to detect membrane loss, since membrane loss leads to the accessibility of PI staining to DNA. […] Absorbances of the samples were read every 60 min in a Spectramax 250 microplate reader at 405 nm.
(§1) Cells were collected, stained with PI and FITC-Annexin V, and analyzed by FACS. […] The antigen-antibody complexes were detected using ^125I-labeled protein G. (C) Cells were washed in PBS and analyzed for caspase-3 activity using a colorimetric protease assay kit (Chemicon). […] Absorbances of samples were read every 60 min in a microplate reader at 405 nm.
Cells were washed in PBS and analyzed for caspase-3 activity by using a CPP32/Caspase-3 Colorimetric Protease Assay Kit (Chemicon, Temecula, Calif.) according to the manufacturers' instructions. […] Protein concentrations of the lysates were determined by using the bicinchoninic acid assay reagent (Pierce, Rockford, Ill.). […]

[3] = test system: U1 cells (latently HIV-1 infected); test: Cell cycle analysis (PI staining, FACS) of HIV-1-infected U1 cells; conditions: U1 cells plus TNF-α (FIG. 2C)
[4] = test system: HIV-1 genomic, structural, and regulatory RNAs; test: Northern blot with whole genomic HIV-1 probe in ACH2 cells; assay type: cell-based; conditions: ACH2, TNF-α, then increasing concentrations (1, 10, 50 μM)
Experimental: At days 2, 4, and 6, the supernatants were collected, and the released HIV-1 particles were measured by using a p24 antigen ELISA assay. (B) Twenty micrograms of total RNA was separated on an RNA-formaldehyde-agarose gel, transferred, and probed with full-length labeled HIV-1 genome RNA. The hybridized genomic RNA, singly spliced (structural), and doubly spliced (regulatory) RNAs were exposed and counted by using Molecular Dynamic PhosphorImager software.

[5] = molecular target: cdk6 (Homo sapiens, UniProt Q00534); conditions: cited from earlier work
[6] = molecular target: cdk4 (Homo sapiens, UniProt P11802); conditions: cited from earlier work
[7] = test system: PARP; test: Immunoblot of PARP cleavage; assay type: cell-based; conditions: induced ACH2 cells exposed to Roscovitine
Source text: (§2) Apoptosis and necrosis are two pathways that lead to cell death. Apoptosis is characterized by a series of morphological features, including cell shrinkage, plasma membrane blebbing, phosphatidylserine translocation to the outer leaflet of the plasma membrane, nuclear condensation, and DNA fragmentation (1). To distinguish apoptotic from necrotic cells, we performed a flow cytometry experiment using Annexin V and PI double staining. Annexin V is a sensitive probe for phosphatidylserine, and PI was used to detect membrane loss, since membrane loss leads to the accessibility of PI staining to DNA. […] At 48 h after drug treatment, most of the apoptotic cells were found at the late stage of apoptosis and not in the necrotic population (FIG. 6A). We next investigated whether the apoptotic cascade through the caspase-3 pathway was activated under drug treatment. […] Absorbances of the samples were read every 60 min in a Spectramax 250 microplate reader at 405 nm.
as §1

[8] = molecular target: cdk9-cyclin T complex (Homo sapiens, UniProt P50750); test: cdk9-cyclin T immunoprecipitate CTD kinase assay from treated cells; conditions: 10 μM (FIG. 5B)
[9] = test system: HIV-1-infected ACH2 cells; test: Annexin V and PI double staining flow cytometry; assay type: cell-based; conditions: ACH2, especially with TNF-α; 10 μM, 48 h
Source text: as §2, with “6A).” for “6A). We next investigated whether the apoptotic cascade through the caspase-3 pathway was activated under drug treatment.”
as §1
Apoptosis was determined by using Annexin V and PI double staining (Annexin V-FITC; PharMingen International). […] Cells were acquired and analyzed using CELLQuest software (Becton Dickinson).

Chain of cdk9-cyclin T complex (P50750 whole entry): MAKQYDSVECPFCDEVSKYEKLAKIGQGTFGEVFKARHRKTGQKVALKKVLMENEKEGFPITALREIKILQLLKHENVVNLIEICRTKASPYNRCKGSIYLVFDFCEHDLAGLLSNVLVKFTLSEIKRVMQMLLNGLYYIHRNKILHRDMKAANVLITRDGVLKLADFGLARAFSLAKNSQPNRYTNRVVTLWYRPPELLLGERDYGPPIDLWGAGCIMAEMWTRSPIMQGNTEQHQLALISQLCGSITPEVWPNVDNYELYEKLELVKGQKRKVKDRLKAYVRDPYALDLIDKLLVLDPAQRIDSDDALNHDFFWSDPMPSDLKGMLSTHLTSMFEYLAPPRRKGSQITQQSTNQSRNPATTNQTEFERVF
Chain of cdk9-cyclin T complex (O60563 whole entry partner): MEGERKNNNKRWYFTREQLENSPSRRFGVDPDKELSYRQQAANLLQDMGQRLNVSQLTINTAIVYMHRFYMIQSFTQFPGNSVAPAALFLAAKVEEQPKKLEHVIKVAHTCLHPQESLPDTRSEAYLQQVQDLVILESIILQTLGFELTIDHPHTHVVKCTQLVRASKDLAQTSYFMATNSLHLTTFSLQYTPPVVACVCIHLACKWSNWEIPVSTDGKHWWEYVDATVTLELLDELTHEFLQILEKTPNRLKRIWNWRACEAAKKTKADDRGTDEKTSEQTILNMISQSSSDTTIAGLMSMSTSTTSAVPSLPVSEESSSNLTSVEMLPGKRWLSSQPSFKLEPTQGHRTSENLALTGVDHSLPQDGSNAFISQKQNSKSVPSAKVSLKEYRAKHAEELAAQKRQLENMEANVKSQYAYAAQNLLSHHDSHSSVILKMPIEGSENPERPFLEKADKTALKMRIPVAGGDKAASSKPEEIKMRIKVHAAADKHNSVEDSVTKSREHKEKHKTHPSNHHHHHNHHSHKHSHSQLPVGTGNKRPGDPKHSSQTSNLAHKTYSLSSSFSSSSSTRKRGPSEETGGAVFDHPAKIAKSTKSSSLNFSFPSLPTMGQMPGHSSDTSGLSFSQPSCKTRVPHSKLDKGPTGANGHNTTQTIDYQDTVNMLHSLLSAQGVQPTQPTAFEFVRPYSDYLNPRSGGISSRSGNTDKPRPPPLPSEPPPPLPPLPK
Chain of cdk4 (P11802 whole entry, species assumed): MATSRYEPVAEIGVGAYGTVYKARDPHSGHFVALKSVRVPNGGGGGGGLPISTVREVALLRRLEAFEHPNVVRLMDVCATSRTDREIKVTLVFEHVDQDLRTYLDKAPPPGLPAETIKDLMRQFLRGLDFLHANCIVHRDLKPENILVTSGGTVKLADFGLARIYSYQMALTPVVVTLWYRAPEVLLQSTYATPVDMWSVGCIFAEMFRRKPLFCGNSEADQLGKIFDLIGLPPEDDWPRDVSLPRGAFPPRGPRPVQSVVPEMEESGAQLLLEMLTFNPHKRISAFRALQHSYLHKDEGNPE
Chain of cdk4 (P24385 whole entry partner, species assumed): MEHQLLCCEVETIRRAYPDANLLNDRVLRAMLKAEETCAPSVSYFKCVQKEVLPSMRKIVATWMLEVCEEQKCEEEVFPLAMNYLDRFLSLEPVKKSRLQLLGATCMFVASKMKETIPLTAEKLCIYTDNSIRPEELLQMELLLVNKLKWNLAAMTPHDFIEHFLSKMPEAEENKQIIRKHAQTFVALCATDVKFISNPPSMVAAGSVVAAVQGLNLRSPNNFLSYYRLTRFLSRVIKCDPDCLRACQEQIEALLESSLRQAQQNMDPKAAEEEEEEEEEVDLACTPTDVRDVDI
Chain of cdk6 (Q00534 whole entry): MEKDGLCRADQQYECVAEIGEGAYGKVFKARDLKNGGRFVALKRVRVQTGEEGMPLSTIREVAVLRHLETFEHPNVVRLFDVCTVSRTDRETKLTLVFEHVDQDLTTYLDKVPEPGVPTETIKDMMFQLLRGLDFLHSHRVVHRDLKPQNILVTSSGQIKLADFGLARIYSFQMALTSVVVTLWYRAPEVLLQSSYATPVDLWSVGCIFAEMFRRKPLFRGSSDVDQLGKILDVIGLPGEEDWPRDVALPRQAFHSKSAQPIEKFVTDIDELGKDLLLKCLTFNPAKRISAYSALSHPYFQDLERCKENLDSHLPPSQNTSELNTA
Chain of cdk6 (P30279 whole entry partner): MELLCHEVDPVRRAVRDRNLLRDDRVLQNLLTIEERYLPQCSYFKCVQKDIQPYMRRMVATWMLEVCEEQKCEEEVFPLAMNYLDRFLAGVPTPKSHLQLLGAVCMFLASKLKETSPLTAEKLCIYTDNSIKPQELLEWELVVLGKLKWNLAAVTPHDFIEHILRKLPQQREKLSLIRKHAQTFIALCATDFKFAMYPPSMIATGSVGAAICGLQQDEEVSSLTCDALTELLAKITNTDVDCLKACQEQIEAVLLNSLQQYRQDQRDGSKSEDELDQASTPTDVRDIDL

CC(C)[C@H](CO)Nc1nc(Nc2cccc(Cl)c2)c2ncn(C(C)C)c2n1 [Purvalanol A]
inhibition of HTLV-1 replication (p19 gag) [1]: inhibited HTLV-1 replication

Roscovitine
caspase-3 activity increase [2]: ~5 fold | apoptosis in U1 cells [3]: abundance of the apoptotic population | HIV-1 genomic, structural, and regulatory RNA levels [4]: dramatically decreased | reported inhibition of cdk6 [5]: not cdk4 or -6 | reported inhibition of cdk4 [6]: not cdk4 or -6 | PARP cleavage [7]: almost completely cleaved | cdk9 levels and activity on phosphorylation of RNA Pol II CTD [8]: decrease of cdk9 levels and its activity | number of apoptotic (Annexin V-stained) cells [9]: remarkable increase in the number of apoptotic cells
